Active and inactive are the calls of the source. The calls are words filed in the database; no cut-off is given here.
Columns and labels:
BXPC-3 [1] = assay: Inhibition of cell migration in human BXPC-3 cells assessed as decrease in cell migration incubated for 24 hrs by wound healing assay; assay type: functional, cell-based
BXPC-3 [2] = assay: Induction of apoptosis in human BXPC-3 cells assessed as increase in BAX expression at 0.1 to 1 uM incubated for 24 hrs by Western blot analysis; assay type: functional, cell-based; conditions: dose 0.1-1 µM
[3] = Toxicity in mouse implanted with human BXPC-3 cells assessed as mortality at 25 to 50 mg/kg, po measured on day 11; assay type: organism-based; conditions: in vivo, 264 h, dose 25-50 mg/kg, time 11 day
BXPC-3 [4] = assay: Antitumor activity against human BXPC-3 cells xenografted in mouse assessed as tumor growth inhibition at 50 mg/kg, po administered for 14 days; assay type: functional; conditions: BXPC-3, 336 h, time 14 day, read-out: TGI
A549/TR = assay: cells; conditions: Homo sapiens, 72 h
Description: Antiproliferative activity against human A549/Taxol cells assessed as cell viability incubated for 72 hrs by MTT assay

MDA-MB-231 [5] = assay: cells; conditions: Homo sapiens, MDA-MB-231, 72 h
Description: Antiproliferative activity against human MDA-MB-231 cells assessed as cell viability incubated for 72 hrs by MTT assay

[6] = biological target: Vascular endothelial growth factor receptor 2 (Homo sapiens, UniProt P35968); assay: Inhibition of KDR (unknown origin) by envision reader analysis
Sequence of Vascular endothelial growth factor receptor 2 (P35968 whole entry): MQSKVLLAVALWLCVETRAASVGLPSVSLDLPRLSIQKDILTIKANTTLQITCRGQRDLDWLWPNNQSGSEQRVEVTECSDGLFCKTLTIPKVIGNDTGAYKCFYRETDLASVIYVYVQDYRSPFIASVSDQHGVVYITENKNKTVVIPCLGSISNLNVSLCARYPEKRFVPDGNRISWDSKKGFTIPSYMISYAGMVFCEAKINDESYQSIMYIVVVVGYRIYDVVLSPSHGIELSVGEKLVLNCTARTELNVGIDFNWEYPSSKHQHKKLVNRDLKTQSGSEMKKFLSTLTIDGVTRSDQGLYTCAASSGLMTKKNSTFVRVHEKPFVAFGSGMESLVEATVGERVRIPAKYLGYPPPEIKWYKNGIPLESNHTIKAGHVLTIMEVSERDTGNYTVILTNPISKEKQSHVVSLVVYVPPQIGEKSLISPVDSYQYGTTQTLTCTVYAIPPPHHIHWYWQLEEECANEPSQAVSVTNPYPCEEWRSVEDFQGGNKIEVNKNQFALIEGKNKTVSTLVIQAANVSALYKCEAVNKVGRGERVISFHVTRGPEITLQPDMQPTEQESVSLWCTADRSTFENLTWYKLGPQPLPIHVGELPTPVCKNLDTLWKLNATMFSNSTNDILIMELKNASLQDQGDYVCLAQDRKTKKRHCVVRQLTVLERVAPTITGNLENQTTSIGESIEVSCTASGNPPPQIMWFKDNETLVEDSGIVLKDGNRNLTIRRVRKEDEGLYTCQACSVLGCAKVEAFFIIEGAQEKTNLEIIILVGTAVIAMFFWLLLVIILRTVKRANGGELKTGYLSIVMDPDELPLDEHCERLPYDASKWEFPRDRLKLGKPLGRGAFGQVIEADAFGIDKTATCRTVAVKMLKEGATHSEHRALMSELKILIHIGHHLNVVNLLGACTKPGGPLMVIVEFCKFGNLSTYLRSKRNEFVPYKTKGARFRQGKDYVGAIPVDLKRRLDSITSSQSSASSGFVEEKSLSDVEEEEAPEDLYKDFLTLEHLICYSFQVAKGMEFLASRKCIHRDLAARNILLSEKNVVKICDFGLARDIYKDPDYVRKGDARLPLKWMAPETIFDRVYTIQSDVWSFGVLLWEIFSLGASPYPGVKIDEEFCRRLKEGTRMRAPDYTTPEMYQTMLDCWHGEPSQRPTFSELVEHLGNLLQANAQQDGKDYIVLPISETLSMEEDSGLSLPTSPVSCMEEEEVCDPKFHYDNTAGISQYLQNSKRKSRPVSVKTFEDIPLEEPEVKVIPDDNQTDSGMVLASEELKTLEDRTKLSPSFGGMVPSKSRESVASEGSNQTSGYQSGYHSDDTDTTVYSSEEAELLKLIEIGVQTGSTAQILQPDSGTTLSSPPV

HUVEC [7] = assay: Inhibition of VEGFR phosphorylation in HUVEC cells at 0.5 to 2 uM incubated for 24 hrs by Western blot assay; assay type: cell-based; conditions: Homo sapiens, dose 0.5-2 µM
BXPC-3 [8] = assay: Induction of apoptosis in human BXPC-3 cells by annexin V-FITC/propidium iodide staining-based flow cytometry analysis; assay type: functional, cell-based
[9] = Toxicity in mouse implanted with human BXPC-3 cells at 25 to 50 mg/kg, po measured on day 11; assay type: organism-based; conditions: in vivo, 264 h, dose 25-50 mg/kg, time 11 day
[10] = Cytotoxicity against human HUVEC cells assessed as cell viability incubated for 72 hrs by MTT assay; assay type: toxicity, cell-based
[11] = biological target: Signal transducer and activator of transcription 3 (Homo sapiens) (UniProt P40763); assay: Inhibition of STAT3 phosphorylation in human BXPC-3 cells incubated for 24 to 72 hrs by Western blot analysis; assay type: cell-based; conditions: dose <= 5.0 µM, time 24-72 hrs
Sequence of Signal transducer and activator of transcription 3 (Homo sapiens) (P40763 whole entry): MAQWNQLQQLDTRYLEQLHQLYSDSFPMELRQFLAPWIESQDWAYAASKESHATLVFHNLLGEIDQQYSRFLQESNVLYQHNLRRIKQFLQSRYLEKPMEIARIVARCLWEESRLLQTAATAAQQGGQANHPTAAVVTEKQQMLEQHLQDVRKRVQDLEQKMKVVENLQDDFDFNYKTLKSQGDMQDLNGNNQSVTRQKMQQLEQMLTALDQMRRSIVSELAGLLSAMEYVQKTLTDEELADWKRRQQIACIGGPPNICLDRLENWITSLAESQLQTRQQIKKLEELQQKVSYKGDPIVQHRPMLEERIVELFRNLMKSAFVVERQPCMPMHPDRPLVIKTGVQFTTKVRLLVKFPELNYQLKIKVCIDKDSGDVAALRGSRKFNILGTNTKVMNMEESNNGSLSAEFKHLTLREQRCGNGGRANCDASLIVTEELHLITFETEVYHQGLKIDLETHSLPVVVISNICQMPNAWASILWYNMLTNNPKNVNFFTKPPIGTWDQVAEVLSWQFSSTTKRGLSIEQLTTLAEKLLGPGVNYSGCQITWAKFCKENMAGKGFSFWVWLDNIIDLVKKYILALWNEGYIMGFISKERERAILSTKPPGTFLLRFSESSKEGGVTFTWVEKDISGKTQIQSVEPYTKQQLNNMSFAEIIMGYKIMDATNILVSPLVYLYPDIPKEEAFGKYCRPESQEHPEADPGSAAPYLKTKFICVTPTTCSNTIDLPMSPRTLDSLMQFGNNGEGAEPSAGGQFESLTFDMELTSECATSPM

[12] = biological target: BDNF/NT-3 growth factors receptor (Homo sapiens) (UniProt Q16620); assay: Inhibition of TRKB (unknown origin) by envision reader analysis
Sequence of BDNF/NT-3 growth factors receptor (Homo sapiens) (Q16620 32-822 limits assumed): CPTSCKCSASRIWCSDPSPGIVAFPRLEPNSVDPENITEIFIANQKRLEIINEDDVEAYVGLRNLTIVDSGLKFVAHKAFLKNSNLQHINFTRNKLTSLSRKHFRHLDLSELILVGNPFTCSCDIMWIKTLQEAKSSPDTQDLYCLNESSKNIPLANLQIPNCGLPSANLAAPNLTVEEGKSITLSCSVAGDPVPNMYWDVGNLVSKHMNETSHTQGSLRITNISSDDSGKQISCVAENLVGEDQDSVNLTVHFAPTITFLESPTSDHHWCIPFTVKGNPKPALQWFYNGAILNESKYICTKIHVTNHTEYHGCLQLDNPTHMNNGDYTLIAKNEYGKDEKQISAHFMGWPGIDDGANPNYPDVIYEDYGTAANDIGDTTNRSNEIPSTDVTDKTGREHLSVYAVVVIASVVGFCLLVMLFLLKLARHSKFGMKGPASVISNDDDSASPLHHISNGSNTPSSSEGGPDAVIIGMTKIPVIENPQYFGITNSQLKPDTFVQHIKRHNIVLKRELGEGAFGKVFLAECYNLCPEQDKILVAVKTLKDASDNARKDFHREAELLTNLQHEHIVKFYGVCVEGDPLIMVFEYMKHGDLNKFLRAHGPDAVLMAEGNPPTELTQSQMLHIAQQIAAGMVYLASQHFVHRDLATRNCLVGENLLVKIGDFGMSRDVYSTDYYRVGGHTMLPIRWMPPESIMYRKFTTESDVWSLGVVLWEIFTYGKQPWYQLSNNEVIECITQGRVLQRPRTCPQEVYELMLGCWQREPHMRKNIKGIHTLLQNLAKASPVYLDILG

[13] = Cytotoxicity against human HK-2 cells assessed as inhibition of cell growth; assay type: toxicity, cell-based
NCI-H1975 = assay: cells; conditions: Homo sapiens, NCI-H1975, 72 h
Description: Antiproliferative activity against human NCI-H1975 cells assessed as cell viability incubated for 72 hrs by MTT assay

MDA-MB-231 [14] = assay: Effect on STAT3 level in human MDA-MB-231 cells incubated for 24 to 72 hrs by Western blot analysis; assay type: functional, cell-based; conditions: time 24-72 hrs
[15] = Tmax in Sprague-Dawley rat at 50 mg/kg, po; assay type: ADME, organism-based; conditions: in vivo
BXPC-3 [16] = assay: Effect on N-cadherin expression in TGF-beta induced human BXPC-3 cells at 0.1 to 0.5 uM incubated for 24 hrs by immunofluorescence assay; assay type: functional, cell-based; conditions: dose 0.1-0.5 µM
[17] = AUC (0 to last) in Sprague-Dawley rat at 5 mg/kg, iv; assay type: ADME, organism-based; conditions: Sprague-Dawley, in vivo
cells = conditions: Homo sapiens, CDDP-resistant A549 cell, 72 h
Description: Antiproliferative activity against human CDDP-resistant A549 cell assessed as cell viability incubated for 72 hrs by MTT assay

HUVEC [18] = assay: Anti-angiogenesis activity in HUVEC assessed as reduction in number of vascular nodes at 0.5 to 2 uM incubated for 24 hrs by Calcein AM staining based light microscopic analysis; assay type: functional, cell-based; conditions: Homo sapiens, dose 0.5-2 µM
BXPC-3 [19] = assay: Antitumor activity against human BXPC-3 cells xenografted in mouse assessed as reduction in tumor weight at 50 mg/kg, po administered for 14 days; assay type: functional; design: scale not given: the % may be the effect or the level left; conditions: time 14 day
Homo sapiens = organism: Homo sapiens; assay: Inhibition of SRC (unknown origin) by envision reader analysis
MDA-MB-231 [20] = conditions: Homo sapiens, MDA-MB-231, 168 h
BXPC-3 [21] = assay: Effect on AXL expression in human BXPC-3 cells; assay type: functional, cell-based
MKN-45 = assay: cells; conditions: Homo sapiens, MKN-45, 72 h
Description: Antiproliferative activity against human MKN-45 cells assessed as cell viability incubated for 72 hrs by MTT assay

BXPC-3 [22] = assay: Antitumor activity against human BXPC-3 cells xenografted in mouse assessed as effect on E-cadherin expression in tumor at 25 to 50 mg/kg, po administered for 14 days; assay type: functional, organism-based; conditions: dose 25-50 mg/kg, time 14.0 day
NIH3T3 = assay: Anti-fibrotic activity in mouse NIH3T3 cells assessed as reduction in fibronectin expression incubated for 48 hrs by Western blot analysis; assay type: functional, cell-based
BXPC-3 [23] = assay: Antitumor activity against human BXPC-3 cells xenografted in mouse assessed as reduction in tumor weight at 25 mg/kg, po administered for 14 days; assay type: functional; design: scale not given: the % may be the effect or the level left; conditions: time 14 day
[24] = Cytotoxicity against human MCF-10A cells assessed as inhibition of cell growth; assay type: toxicity, cell-based
BXPC-3 [25] = assay: Down regulation of Ki67 expression in human BXPC-3 cells by immunofluorescence assay; assay type: functional, cell-based
PC-9 = assay: cells; conditions: Homo sapiens, PC-9, 72 h
Description: Antiproliferative activity against human PC-9 cells assessed as cell viability incubated for 72 hrs by MTT assay

[26] = biological target: Fibroblast growth factor receptor (Homo sapiens) (UniProt P22607+P11362+P22455+P21802); assay: Inhibition of FGFR (unknown origin) by envision reader analysis; assay type: protein assay
[27] = Oral bioavailability in Sprague-Dawley rat at 50 mg/kg; assay type: ADME, organism-based; conditions: Sprague-Dawley, in vivo
HUVEC [28] = assay: Inhibition of cell migration in human HUVEC cells assessed as decrease in migrating cells at 0.5 uM incubated for 24 hrs by wound healing assay; assay type: functional, cell-based
BXPC-3 [29] = assay: Antiproliferative activity against human BXPC-3 cells cultured as 3D tumor spheroids assessed as cell viability incubated for 7 days by CCK-8 assay; conditions: BXPC-3, 168 h
[30] = Metabolic stability in rat liver microsome assessed as half life measured upto 240 mins by HPLC analysis; assay type: ADME; conditions: liver microsomes
[31] = Antiproliferative activity against human HUVEC cells cultured as 3D tumor spheroids assessed as cell viability incubated for 72 hrs by CCK-8 assay; assay type: toxicity, cell-based

## CCN1CCN(C(C)C(=O)N(C)c2ccc(N/C(=C3\C(=O)Nc4cc(Cl)ccc43)c3ccccc3)cc2)CC1 (racemic)
BXPC-3 [1]
  inhibition: Active
BXPC-3 [2]
  Activity: Active
[3]
  Activity: Non-toxic
BXPC-3 [4]
  inhibition in vivo at 50 mg/kg: 83%
A549/TR
  IC50: 4.77 µM
MDA-MB-231 [5]
  IC50: 1.16 µM
[6]
  IC50: 0.00152 µM
HUVEC [7]
  inhibition: Active
BXPC-3 [8]
  Activity: Active
[9]
  Activity: Non-toxic
[10]
  IC50 at 72 h: 0.43 µM
[11]
  inhibition: Dose-dependent-effect
[12]
  inhibition: Active
[13]
  IC50: 8.35 µM
NCI-H1975
  IC50: 4.38 µM
MDA-MB-231 [14]
  Activity: inactive
[15]
  Tmax: 8 h
BXPC-3 [16]
  Activity: Active
[17]
  AUC(0-t): 1770 ng·h/mL
cells
  IC50: 5.4 µM
HUVEC [18]
  Activity: Active
BXPC-3 [19]
  Activity: 56.46%
Homo sapiens
  inhibition: Active
MDA-MB-231 [20]
  IC50: 2.22 µM
BXPC-3 [21]
  Activity: Active
MKN-45
  IC50: 1.26 µM
BXPC-3 [22]
  Activity: Active
NIH3T3
  Activity: Active
BXPC-3 [23]
  Activity: 71%
[24]
  IC50: > 10 µM
BXPC-3 [25]
  Activity: Active
PC-9
  IC50: 5.91 µM
[26]
  inhibition: Active
[27]
  bioavailability: 6.53%
HUVEC [28]
  inhibition: Active
BXPC-3 [29]
  IC50: 1.62 µM
[30]
  half-life: 0.518 h
[31]
  IC50 at 72 h: 1.54 µM

From ChEMBL document CHEMBL6087458, “The Discovery of a Novel AXL/Triple Angiokinase Inhibitor Based on 6-Chloro-Substituted Indolinone and Side Chain Methyl Substitution Inhibiting Pancreatic Cancer Growth and Metastasis” (J Med Chem, 2025)
